Source: ChEMBL document CHEMBL1156297, “Sulfonamide linked neoglycoconjugates--a new class of inhibitors for cancer-associated carbonic anhydrases” (J Med Chem, 2010)

Key:
Carbonic anhydrase 1 = Carbonic anhydrase 1 (Homo sapiens, UniProt P00915)
Carbonic anhydrase 9 = Carbonic anhydrase 9 (Homo sapiens, UniProt Q16790)
Carbonic anhydrase 2 = Carbonic anhydrase 2 (Homo sapiens, UniProt P00918)
Carbonic anhydrase 12 = Carbonic anhydrase 12 (Homo sapiens, UniProt O43570)
[1] = Permeability by PAMPA; type: ADME; settings: read-out: permeability

Sequence of Carbonic anhydrase 1 (P00915 whole entry): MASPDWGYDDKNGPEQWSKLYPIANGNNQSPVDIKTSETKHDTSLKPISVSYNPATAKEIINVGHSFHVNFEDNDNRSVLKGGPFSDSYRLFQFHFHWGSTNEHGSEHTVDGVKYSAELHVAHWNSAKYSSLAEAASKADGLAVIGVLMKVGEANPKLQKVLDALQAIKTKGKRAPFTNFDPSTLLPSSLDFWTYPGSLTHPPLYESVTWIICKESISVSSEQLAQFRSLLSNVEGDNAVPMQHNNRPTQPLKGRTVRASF
Sequence of Carbonic anhydrase 12 (O43570 whole entry): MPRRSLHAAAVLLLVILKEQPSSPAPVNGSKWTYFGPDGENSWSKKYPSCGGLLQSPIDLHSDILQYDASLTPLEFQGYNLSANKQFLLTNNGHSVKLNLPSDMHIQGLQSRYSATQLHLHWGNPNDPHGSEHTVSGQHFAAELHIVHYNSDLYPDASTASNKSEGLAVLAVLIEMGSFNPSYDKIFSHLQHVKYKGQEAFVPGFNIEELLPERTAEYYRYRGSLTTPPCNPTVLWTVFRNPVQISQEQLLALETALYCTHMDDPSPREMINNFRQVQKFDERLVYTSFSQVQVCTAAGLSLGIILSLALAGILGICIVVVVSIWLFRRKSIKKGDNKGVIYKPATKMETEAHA

SMILES	Ki (Carbonic anhydrase 1)	Ki (Carbonic anhydrase 2)	Ki (Carbonic anhydrase 12)	Papp [1]	Ki (Carbonic anhydrase 9)
NS(=O)(=O)c1ccc(CCNS(=O)(=O)[C@@H]2O[C@H](C(=O)O)[C@H](O)[C@H](O)[C@H]2O)cc1	0.097 µM	0.0047 µM	0.0095 µM		0.096 µM
CC(=O)OC[C@H]1O[C@@H](S(=O)(=O)NCc2ccc(S(N)(=O)=O)cc2)[C@H](OC(C)=O)[C@@H](OC(C)=O)[C@@H]1O[C@H]1O[C@H](COC(C)=O)[C@@H](OC(C)=O)[C@H](OC(C)=O)[C@H]1OC(C)=O	2.04 µM	0.0625 µM	0.0091 µM		
CC(=O)OC[C@H]1O[C@@H](SNCCc2ccc(S(N)(=O)=O)cc2)[C@H](OC(C)=O)[C@@H](OC(C)=O)[C@@H]1O[C@H]1O[C@H](COC(C)=O)[C@@H](OC(C)=O)[C@H](OC(C)=O)[C@H]1OC(C)=O	6.75 µM	0.0151 µM	0.0088 µM		0.094 µM
COC(=O)[C@H]1O[C@@H](S(=O)(=O)NCc2ccc(S(N)(=O)=O)cc2)[C@H](OC(C)=O)[C@@H](OC(C)=O)[C@H]1OC(C)=O	2.4 µM	0.0658 µM	0.0098 µM		
CC(=O)OC[C@H]1O[C@@H](S(=O)(=O)NCCc2ccc(S(N)(=O)=O)cc2)[C@H](OC(C)=O)[C@@H](OC(C)=O)[C@@H]1O[C@H]1O[C@H](COC(C)=O)[C@@H](OC(C)=O)[C@H](OC(C)=O)[C@H]1OC(C)=O	5.57 µM	0.0152 µM	0.0088 µM		0.093 µM
CC(=O)OC[C@H]1O[C@@H](SNCCc2ccc(S(N)(=O)=O)cc2)[C@H](OC(C)=O)[C@@H](OC(C)=O)[C@@H]1OC(C)=O	3.89 µM	0.0145 µM	0.0136 µM		0.097 µM
NS(=O)(=O)c1ccc(CCNS(=O)(=O)[C@@H]2O[C@H](CO)[C@@H](O[C@@H]3O[C@H](CO)[C@H](O)[C@H](O)[C@H]3O)[C@H](O)[C@H]2O)cc1	0.078 µM	0.0046 µM	0.0091 µM		0.1 µM
NS(=O)(=O)c1ccc(CNS(=O)(=O)[C@@H]2O[C@H](C(=O)O)[C@H](O)[C@H](O)[C@H]2O)cc1	0.081 µM	0.0071 µM	0.0089 µM		0.097 µM
CC(=O)OC[C@H]1O[C@@H](O[C@H]2[C@H](OC(C)=O)[C@@H](OC(C)=O)[C@H](S(=O)(=O)NCCc3ccc(S(N)(=O)=O)cc3)O[C@@H]2COC(C)=O)[C@H](OC(C)=O)[C@@H](OC(C)=O)[C@H]1OC(C)=O	3.46 µM	0.0562 µM	0.0095 µM		0.097 µM
CC(=O)OC[C@H]1O[C@@H](SNCCc2ccc(S(N)(=O)=O)cc2)[C@H](OC(C)=O)[C@@H](OC(C)=O)[C@H]1OC(C)=O	4.1 µM	0.0133 µM	0.0167 µM		0.107 µM
NS(=O)(=O)c1ccc(CCNS(=O)(=O)[C@@H]2O[C@H](CO)[C@H](O)[C@H](O)[C@H]2O)cc1	0.082 µM	0.0076 µM	0.0078 µM		0.1 µM
CC(=O)OC[C@H]1O[C@@H](SNCc2ccc(S(N)(=O)=O)cc2)[C@H](OC(C)=O)[C@@H](OC(C)=O)[C@@H]1OC(C)=O	4.16 µM	0.0148 µM	0.0115 µM		
CC(=O)OC[C@H]1O[C@@H](SNCc2ccc(S(N)(=O)=O)cc2)[C@H](OC(C)=O)[C@@H](OC(C)=O)[C@@H]1O[C@H]1O[C@H](COC(C)=O)[C@@H](OC(C)=O)[C@H](OC(C)=O)[C@H]1OC(C)=O	3.46 µM	0.0131 µM	0.0085 µM		
NS(=O)(=O)c1ccc(CCNS(=O)(=O)[C@@H]2O[C@H](CO)[C@@H](O[C@H]3O[C@H](CO)[C@@H](O)[C@H](O)[C@H]3O)[C@H](O)[C@H]2O)cc1	0.102 µM	0.0052 µM	0.0073 µM		0.081 µM
NS(=O)(=O)c1ccc(CNS(=O)(=O)[C@@H]2O[C@H](CO)[C@@H](O[C@H]3O[C@H](CO)[C@@H](O)[C@H](O)[C@H]3O)[C@H](O)[C@H]2O)cc1	0.101 µM	0.0048 µM	0.0082 µM		0.098 µM

Now from value to compound, other results behind:

Ki (Carbonic anhydrase 1)	Ki (Carbonic anhydrase 2)	Ki (Carbonic anhydrase 12)	Papp [1]	SMILES	Ki (Carbonic anhydrase 9)
0.088 µM	0.0078 µM	0.0076 µM		NS(=O)(=O)c1ccc(CCNS(=O)(=O)[C@@H]2O[C@H](CO)[C@@H](O)[C@H](O)[C@H]2O)cc1	0.084 µM
0.11 µM	0.0163 µM	0.0099 µM		CC(=O)OC[C@H]1O[C@@H](S(=O)(=O)NCc2ccc(S(N)(=O)=O)cc2)[C@H](OC(C)=O)[C@@H](OC(C)=O)[C@H]1OC(C)=O	
0.11 µM	0.0162 µM	0.0095 µM		COC(=O)[C@H]1O[C@@H](SNCCc2ccc(S(N)(=O)=O)cc2)[C@H](OC(C)=O)[C@@H](OC(C)=O)[C@H]1OC(C)=O	
3.21 µM	0.0627 µM	0.0097 µM		COC(=O)[C@H]1O[C@@H](S(=O)(=O)NCCc2ccc(S(N)(=O)=O)cc2)[C@H](OC(C)=O)[C@@H](OC(C)=O)[C@H]1OC(C)=O	0.095 µM
			< 1.5 nm/s	CC(=O)Nc1nnc(S(N)(=O)=O)s1 [ACETAZOLAMIDE]	
4.71 µM	0.0738 µM	0.0094 µM		CC(=O)OC[C@H]1O[C@@H](S(=O)(=O)NCCc2ccc(S(N)(=O)=O)cc2)[C@H](OC(C)=O)[C@@H](OC(C)=O)[C@H]1OC(C)=O	
6.83 µM	0.0155 µM	0.0098 µM		CC(=O)OC[C@H]1O[C@@H](O[C@H]2[C@H](OC(C)=O)[C@@H](OC(C)=O)[C@H](SNCc3ccc(S(N)(=O)=O)cc3)O[C@@H]2COC(C)=O)[C@H](OC(C)=O)[C@@H](OC(C)=O)[C@H]1OC(C)=O	
0.12 µM	0.0134 µM	0.0155 µM		CC(=O)OC[C@H]1O[C@@H](SNCc2ccc(S(N)(=O)=O)cc2)[C@H](OC(C)=O)[C@@H](OC(C)=O)[C@H]1OC(C)=O	
4.93 µM	0.0588 µM	0.0104 µM		CC(=O)OC[C@H]1O[C@@H](O[C@H]2[C@H](OC(C)=O)[C@@H](OC(C)=O)[C@H](S(=O)(=O)NCc3ccc(S(N)(=O)=O)cc3)O[C@@H]2COC(C)=O)[C@H](OC(C)=O)[C@@H](OC(C)=O)[C@H]1OC(C)=O	
0.107 µM	0.005 µM	0.0089 µM		NS(=O)(=O)c1ccc(CNS(=O)(=O)[C@@H]2O[C@H](CO)[C@@H](O[C@@H]3O[C@H](CO)[C@H](O)[C@H](O)[C@H]3O)[C@H](O)[C@H]2O)cc1	0.106 µM
0.102 µM	0.0091 µM	0.0083 µM	< 0.5 nm/s	NS(=O)(=O)c1ccc(CNS(=O)(=O)[C@@H]2O[C@H](CO)[C@@H](O)[C@H](O)[C@H]2O)cc1	
0.11 µM	0.0181 µM	0.0156 µM		COC(=O)[C@H]1O[C@@H](SNCc2ccc(S(N)(=O)=O)cc2)[C@H](OC(C)=O)[C@@H](OC(C)=O)[C@H]1OC(C)=O	0.102 µM
0.087 µM	0.0078 µM	0.0087 µM		NS(=O)(=O)c1ccc(CNS(=O)(=O)[C@@H]2O[C@H](CO)[C@H](O)[C@H](O)[C@H]2O)cc1	
8.04 µM	0.012 µM	0.0087 µM		CC(=O)OC[C@H]1O[C@@H](O[C@H]2[C@H](OC(C)=O)[C@@H](OC(C)=O)[C@H](SNCCc3ccc(S(N)(=O)=O)cc3)O[C@@H]2COC(C)=O)[C@H](OC(C)=O)[C@@H](OC(C)=O)[C@H]1OC(C)=O	0.097 µM
0.09 µM	0.0154 µM	0.0095 µM		CC(=O)OC[C@H]1O[C@@H](S(=O)(=O)NCCc2ccc(S(N)(=O)=O)cc2)[C@H](OC(C)=O)[C@@H](OC(C)=O)[C@@H]1OC(C)=O	
0.12 µM	0.0148 µM	0.0093 µM	< 0.5 nm/s	CC(=O)OC[C@H]1O[C@@H](S(=O)(=O)NCc2ccc(S(N)(=O)=O)cc2)[C@H](OC(C)=O)[C@@H](OC(C)=O)[C@@H]1OC(C)=O	
